# Results as given in publication PMC6934184, “Selective DNA-PKcs inhibition extends the therapeutic index of localized radiotherapy and chemotherapy” (The Journal of Clinical Investigation, 2019).
# Biological target: T1, CDK5/p25 (Homo sapiens, UniProt Q00535)
# T1 construct: purchased Thermo Fisher Scientific (Life Technologies) SelectScreen
# Assay: SelectScreen Z'LYTE
# Type: biochemical
# Outline: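 NU5455 was profiled across the SelectScreen Broad panel of kinase activity and binding assays. Z'LYTE reactions such as CSF1R ran at apparent Km ATP, while the Adapta CAMK1 assay used ATP listed as 10. Values are given as percent.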
# T1 sequence (Q00535 whole entry): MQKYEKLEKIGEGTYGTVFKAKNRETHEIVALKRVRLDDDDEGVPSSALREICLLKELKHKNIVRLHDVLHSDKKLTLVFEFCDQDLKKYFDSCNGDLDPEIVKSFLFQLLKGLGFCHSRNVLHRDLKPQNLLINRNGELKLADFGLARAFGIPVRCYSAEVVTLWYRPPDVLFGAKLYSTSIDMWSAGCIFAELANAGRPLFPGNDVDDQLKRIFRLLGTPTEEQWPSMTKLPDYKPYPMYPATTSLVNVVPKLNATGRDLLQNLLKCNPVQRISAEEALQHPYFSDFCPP
# T1 sequence (Q15078 99-307 partner limits assumed): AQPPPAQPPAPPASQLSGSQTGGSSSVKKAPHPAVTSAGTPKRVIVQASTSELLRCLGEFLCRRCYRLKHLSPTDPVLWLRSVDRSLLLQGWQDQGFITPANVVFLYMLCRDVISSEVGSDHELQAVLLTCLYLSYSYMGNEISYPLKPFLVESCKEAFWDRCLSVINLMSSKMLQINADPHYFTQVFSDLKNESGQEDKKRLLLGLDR
smiles,measurement,value
CN(C(=O)CN1CCOCC1)c1ccc2sc3c(-c4cccc5c(=O)cc(N6CC7CCC(C6)O7)oc45)cccc3c2c1 [NU5455],inhibition at 1 µM,-1.1%
